Measurements taken from article PMC12700559, “Structural basis for simvastatin-induced skeletal muscle weakness associated with type 1 ryanodine receptor T4709M mutation” (The Journal of Clinical Investigation, 2025).

Key:
[1] = molecular target: T1, RyR1 BSM1 mutant (Mus musculus, UniProt E9PZQ0, W4792A); assay: [3H]simvastatin radioligand binding
T1 construct: recombinant RyR1 on HEK293 ER microsomes

[2] = molecular target: T2, type 1 ryanodine receptor (RyR1) (Mus musculus, UniProt E9PZQ0); assay: [3H]simvastatin radioligand binding; single-channel recordings show activation
T2 construct: recombinant WT RyR1 on HEK293 ER microsomes (also endogenous RyR1 from mouse skeletal muscle)
T2 sequence (E9PZQ0 whole entry): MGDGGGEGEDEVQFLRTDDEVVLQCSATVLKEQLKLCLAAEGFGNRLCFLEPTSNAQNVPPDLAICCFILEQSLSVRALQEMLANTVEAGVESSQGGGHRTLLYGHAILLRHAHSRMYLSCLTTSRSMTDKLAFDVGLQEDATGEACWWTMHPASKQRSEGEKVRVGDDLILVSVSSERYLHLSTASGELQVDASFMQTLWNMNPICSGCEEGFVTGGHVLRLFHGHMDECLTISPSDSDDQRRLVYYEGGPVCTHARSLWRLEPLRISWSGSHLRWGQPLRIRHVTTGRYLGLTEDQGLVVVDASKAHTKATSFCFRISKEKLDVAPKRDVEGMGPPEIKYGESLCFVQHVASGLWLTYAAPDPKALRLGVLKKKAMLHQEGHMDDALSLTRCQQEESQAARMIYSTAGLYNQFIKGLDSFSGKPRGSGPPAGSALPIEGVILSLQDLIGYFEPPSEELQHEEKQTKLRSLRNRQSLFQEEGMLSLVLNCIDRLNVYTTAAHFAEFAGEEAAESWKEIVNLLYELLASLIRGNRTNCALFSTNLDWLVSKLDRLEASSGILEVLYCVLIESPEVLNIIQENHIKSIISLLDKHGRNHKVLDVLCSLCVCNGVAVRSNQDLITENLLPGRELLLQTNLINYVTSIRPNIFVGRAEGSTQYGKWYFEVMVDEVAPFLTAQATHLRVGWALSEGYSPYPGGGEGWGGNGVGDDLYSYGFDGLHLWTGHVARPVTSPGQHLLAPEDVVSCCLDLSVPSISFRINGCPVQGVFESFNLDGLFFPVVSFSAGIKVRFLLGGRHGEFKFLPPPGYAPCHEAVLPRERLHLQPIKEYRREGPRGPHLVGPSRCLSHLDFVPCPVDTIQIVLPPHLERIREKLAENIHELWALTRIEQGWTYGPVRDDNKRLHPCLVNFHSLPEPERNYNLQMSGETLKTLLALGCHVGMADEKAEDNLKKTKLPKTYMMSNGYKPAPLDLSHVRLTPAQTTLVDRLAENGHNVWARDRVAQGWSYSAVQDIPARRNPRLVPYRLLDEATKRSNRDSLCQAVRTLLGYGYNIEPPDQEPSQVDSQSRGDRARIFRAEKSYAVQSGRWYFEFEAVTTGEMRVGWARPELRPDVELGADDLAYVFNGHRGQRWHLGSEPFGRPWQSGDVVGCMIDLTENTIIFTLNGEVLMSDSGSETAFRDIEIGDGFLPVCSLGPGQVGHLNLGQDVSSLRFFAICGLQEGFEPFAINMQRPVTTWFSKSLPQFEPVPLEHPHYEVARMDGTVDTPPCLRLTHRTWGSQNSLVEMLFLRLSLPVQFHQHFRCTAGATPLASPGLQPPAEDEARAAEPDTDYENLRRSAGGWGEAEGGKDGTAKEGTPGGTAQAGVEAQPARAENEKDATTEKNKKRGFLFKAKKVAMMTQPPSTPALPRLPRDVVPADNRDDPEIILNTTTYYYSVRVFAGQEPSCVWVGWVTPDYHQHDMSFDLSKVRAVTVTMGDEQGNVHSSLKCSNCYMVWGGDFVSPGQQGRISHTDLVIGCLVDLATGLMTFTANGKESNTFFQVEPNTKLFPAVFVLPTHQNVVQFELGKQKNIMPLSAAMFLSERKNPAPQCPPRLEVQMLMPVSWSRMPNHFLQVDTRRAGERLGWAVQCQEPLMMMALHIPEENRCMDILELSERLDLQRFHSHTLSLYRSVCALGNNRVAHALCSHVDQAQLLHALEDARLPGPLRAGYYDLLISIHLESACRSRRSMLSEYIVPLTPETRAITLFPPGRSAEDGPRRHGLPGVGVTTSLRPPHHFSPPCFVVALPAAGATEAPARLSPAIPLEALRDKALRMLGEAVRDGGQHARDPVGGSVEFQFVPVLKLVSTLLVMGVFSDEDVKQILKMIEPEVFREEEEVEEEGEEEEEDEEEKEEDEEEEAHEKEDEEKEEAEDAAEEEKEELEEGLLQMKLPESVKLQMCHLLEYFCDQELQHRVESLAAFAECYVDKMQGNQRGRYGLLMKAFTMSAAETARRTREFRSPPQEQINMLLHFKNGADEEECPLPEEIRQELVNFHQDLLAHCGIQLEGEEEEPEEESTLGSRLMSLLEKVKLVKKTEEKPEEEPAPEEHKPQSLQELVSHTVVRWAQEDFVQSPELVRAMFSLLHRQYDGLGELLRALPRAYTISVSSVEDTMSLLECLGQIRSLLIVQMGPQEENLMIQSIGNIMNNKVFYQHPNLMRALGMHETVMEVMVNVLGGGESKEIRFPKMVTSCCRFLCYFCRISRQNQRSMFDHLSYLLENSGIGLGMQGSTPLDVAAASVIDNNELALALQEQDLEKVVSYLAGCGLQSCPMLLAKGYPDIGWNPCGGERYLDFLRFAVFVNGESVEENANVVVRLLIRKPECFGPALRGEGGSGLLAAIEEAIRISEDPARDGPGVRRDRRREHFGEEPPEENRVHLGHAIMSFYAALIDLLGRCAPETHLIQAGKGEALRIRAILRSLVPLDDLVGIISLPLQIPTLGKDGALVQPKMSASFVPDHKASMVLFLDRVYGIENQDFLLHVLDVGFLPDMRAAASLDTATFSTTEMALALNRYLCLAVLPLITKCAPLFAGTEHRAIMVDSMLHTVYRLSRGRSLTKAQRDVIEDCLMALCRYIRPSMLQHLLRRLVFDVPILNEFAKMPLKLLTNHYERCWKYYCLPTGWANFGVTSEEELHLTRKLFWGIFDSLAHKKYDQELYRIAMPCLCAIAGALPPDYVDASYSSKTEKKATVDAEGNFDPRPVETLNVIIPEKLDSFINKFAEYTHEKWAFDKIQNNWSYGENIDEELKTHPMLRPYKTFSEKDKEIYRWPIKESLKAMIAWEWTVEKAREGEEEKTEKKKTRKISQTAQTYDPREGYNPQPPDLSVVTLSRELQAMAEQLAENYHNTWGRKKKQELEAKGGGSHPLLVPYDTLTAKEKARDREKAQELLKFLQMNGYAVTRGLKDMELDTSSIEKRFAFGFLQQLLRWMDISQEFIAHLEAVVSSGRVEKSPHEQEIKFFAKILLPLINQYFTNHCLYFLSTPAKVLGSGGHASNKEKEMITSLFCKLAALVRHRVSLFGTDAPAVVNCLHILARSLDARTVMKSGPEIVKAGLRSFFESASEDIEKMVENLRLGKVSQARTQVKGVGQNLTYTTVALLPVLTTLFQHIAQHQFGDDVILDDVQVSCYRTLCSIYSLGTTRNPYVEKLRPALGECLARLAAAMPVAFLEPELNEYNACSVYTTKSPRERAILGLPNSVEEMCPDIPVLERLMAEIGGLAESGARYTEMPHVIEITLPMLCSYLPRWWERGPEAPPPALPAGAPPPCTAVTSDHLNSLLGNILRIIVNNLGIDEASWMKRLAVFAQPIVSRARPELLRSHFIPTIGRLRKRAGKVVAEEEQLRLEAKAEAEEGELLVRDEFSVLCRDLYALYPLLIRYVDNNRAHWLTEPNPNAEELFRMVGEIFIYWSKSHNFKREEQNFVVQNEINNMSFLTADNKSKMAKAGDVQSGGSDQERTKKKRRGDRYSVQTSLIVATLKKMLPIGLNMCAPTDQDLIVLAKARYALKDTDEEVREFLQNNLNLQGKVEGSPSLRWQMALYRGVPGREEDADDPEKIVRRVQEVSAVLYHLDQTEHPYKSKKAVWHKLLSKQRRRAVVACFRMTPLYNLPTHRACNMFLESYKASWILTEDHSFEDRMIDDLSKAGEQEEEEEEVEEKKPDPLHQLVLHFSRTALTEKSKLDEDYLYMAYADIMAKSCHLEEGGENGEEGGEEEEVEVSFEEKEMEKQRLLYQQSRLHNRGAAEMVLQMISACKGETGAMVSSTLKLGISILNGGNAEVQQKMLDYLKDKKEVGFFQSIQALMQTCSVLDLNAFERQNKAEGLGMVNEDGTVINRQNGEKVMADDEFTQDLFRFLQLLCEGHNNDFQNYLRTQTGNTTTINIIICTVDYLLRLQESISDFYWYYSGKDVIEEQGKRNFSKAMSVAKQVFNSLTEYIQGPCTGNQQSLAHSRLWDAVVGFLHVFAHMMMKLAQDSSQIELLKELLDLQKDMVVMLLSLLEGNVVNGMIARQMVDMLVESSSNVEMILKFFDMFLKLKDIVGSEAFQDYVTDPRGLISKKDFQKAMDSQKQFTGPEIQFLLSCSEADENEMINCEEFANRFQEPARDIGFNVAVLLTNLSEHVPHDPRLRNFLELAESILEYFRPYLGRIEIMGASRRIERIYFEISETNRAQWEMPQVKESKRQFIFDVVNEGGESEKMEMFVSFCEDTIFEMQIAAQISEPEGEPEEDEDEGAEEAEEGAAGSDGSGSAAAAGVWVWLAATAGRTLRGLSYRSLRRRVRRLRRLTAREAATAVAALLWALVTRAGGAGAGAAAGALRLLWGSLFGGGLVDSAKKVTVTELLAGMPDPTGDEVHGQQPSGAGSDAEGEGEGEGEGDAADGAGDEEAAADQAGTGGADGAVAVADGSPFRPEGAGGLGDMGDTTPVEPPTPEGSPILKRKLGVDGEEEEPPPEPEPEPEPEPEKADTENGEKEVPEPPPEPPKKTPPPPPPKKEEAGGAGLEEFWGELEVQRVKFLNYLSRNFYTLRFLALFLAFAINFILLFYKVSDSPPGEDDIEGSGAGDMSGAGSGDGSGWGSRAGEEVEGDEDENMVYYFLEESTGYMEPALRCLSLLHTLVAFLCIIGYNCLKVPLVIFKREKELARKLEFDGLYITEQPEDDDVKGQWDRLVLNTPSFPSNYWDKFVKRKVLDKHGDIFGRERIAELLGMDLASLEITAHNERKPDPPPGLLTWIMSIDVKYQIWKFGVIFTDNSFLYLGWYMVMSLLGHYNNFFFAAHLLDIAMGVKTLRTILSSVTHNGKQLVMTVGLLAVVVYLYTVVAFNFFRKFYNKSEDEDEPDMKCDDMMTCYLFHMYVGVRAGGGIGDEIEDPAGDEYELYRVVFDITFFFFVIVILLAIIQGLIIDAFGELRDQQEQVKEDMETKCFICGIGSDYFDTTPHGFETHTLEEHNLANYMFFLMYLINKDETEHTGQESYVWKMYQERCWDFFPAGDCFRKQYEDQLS

T1 sequence (E9PZQ0 whole entry W4792A): as the sequence (E9PZQ0 whole entry) above, with W4792A counted along it

Which Kd [1] does the source give for `CCC(C)(C)C(=O)O[C@H]1C[C@@H](C)C=C2C=C[C@H](C)[C@H](CC[C@@H](O)C[C@@H](O)CC(=O)O)[C@H]21` [simvastatin acid] here?
Its Kd is about 7.1 µM.

What about the Kd [2] of the same compound?
Its Kd is 0.69 µM.
